Values of other authors as cited in patent publication US20090143362A1, “CARBAMAZEPINE FORMULATIONS” (priority 2007, published 2009).

What was measured:
[1] = blood level
[2] = in presence of water, after 1 hour, X-ray powder diffraction

For NC(=O)N1c2ccccc2C=Cc2ccccc21 [Carbamazepine, 5H-dibenz-[b,f]azepine-5-carboxamide], the therapeutic range [1] is listed as 4 to 12 µg/mL, the “conversion to carbamazepine dihydrate complete” value [2] is listed as 95% and the water solubility is listed as “poorly water-soluble”.
